Experimental data taken from patent publication US9416115B2, “Fused heterocyclic compounds as ion channel modulators” (Gilead Sciences, Inc., priority 2013, dated 2016).

How the values were obtained:
[1] = system: Ischemia-Induced ST Segment Elevation in Anesthetized Rabbits; experiment: Ischemia-induced ST segment elevation in anesthetized rabbits; type: in vivo, New Zealand rabbits; details: iv infusion; 15 min LAD ischemia after 30 min of compound administration
Procedure: This study was undertaken to determine the anti-ischemic effects of compounds of the present disclosure in an in vivo rabbit model.
Female New Zealand rabbits (3.0-4.0 kg) were purchased from Western Oregon Rabbitry. Animals were housed on a 12-h light and dark cycle and received standard laboratory chow and water. All experiments were performed in accordance with the Guide for the Care and Use of Laboratory Animals published by The National Research Council and with the experimental protocol approved by the Institutional Animal Care Committee of Gilead Sciences, Inc.
(§1) Rabbits were anesthetized with ketamine (35 mg/kg) and xylazine (5 mg/kg) intramuscular injection (im). A tracheotomy was performed and the trachea was intubated with an endotracheal tube. The animal was ventilated with room air supplemented with oxygen using a pressure control animal ventilator (Kent Scientific Corp., Torrington, Conn.) at a respiratory rate of 40 strokes/min and peak inspiration pressure of 10 mmH2O, which was adjusted to keep blood gases and pH within the physiological range (iSTAT clinic analyzer, Heska Corp.; Waukesha, Wis.). The left femoral artery was cannulated for the measurement of blood pressure (BP). Blood samples were also withdrawn from femoral artery. The right external jugular vein was cannulated for drug/vehicle administration. Needle electrodes were inserted subcutaneously into the limbs for recording of the surface electrocardiogram (ECG).
The heart was exposed via an incision in the 4th intercostal space (4th and/or 5th ribs were cut for a clear surgical vision). The chest was opened and a pericardial cradle was formed using 4 retractors. A coronary artery occluder, comprised of a snare made of 5 cm PE-10 tubing with a 6-0 Prolene polypropylene suture in it, was placed loosely around the left anterior descending artery (LAD) at its origin. Two unipolar electrodes, made with teflon coated silver wire attached to a small patch of filter paper, were attached on the surface of the ischemic and normal regions of the left ventricle to record epicardial electrocardiogram.
(§2) Reference electrodes were placed in the open incision of the neck. The body temperature of the animal was monitored via a rectal thermometer and maintained at 37-40° C. by adjusting the surface temperature of the surgical table. Regional ischemia (15 min) was induced by ligating the LAD followed by 15 min of reperfusion caused by releasing the ligation. The heart was excised at the end of the experiment and the LAD was re-ligated. The ischemic area was visualized by perfusing the heart with 1% Evans blue in saline and calculated as a percentage of total ventricular weight. Rabbits with ischemic area less than 10% or larger than 25% were excluded from the analysis. Animals were randomly assigned to vehicle and test compound groups. Test compounds were dissolved in 15% NMP, 10% Solutol and 75% de-ionized water (dH2O). Test compounds were given as an iv infusion at a rate targeted to reach plasma concentrations of 1 μM. After 30 min of compound administration the heart was subjected to 15 min of ischemia followed by 15 min of reperfusion.

[2] = Plasma concentration in the rabbit ischemia study; type: in vivo, New Zealand rabbits; details: iv infusion targeted to 1 uM plasma
Procedure: as §1, §2

hNav1.3 (SCN3A) = molecular target: T1, hNav1.3 (SCN3A) (Homo sapiens, UniProt Q9NY46); experiment: Voltage-dependent inhibition of the Nav1.3 sodium channel; type: cell-based; details: voltage-dependent block of peak current, read-out: Nav 1.3-VDB 1 uM
T1 construct: expressed in transfected cells
T1 sequence (Q9NY46 1-1951 isoform Q9NY46-2): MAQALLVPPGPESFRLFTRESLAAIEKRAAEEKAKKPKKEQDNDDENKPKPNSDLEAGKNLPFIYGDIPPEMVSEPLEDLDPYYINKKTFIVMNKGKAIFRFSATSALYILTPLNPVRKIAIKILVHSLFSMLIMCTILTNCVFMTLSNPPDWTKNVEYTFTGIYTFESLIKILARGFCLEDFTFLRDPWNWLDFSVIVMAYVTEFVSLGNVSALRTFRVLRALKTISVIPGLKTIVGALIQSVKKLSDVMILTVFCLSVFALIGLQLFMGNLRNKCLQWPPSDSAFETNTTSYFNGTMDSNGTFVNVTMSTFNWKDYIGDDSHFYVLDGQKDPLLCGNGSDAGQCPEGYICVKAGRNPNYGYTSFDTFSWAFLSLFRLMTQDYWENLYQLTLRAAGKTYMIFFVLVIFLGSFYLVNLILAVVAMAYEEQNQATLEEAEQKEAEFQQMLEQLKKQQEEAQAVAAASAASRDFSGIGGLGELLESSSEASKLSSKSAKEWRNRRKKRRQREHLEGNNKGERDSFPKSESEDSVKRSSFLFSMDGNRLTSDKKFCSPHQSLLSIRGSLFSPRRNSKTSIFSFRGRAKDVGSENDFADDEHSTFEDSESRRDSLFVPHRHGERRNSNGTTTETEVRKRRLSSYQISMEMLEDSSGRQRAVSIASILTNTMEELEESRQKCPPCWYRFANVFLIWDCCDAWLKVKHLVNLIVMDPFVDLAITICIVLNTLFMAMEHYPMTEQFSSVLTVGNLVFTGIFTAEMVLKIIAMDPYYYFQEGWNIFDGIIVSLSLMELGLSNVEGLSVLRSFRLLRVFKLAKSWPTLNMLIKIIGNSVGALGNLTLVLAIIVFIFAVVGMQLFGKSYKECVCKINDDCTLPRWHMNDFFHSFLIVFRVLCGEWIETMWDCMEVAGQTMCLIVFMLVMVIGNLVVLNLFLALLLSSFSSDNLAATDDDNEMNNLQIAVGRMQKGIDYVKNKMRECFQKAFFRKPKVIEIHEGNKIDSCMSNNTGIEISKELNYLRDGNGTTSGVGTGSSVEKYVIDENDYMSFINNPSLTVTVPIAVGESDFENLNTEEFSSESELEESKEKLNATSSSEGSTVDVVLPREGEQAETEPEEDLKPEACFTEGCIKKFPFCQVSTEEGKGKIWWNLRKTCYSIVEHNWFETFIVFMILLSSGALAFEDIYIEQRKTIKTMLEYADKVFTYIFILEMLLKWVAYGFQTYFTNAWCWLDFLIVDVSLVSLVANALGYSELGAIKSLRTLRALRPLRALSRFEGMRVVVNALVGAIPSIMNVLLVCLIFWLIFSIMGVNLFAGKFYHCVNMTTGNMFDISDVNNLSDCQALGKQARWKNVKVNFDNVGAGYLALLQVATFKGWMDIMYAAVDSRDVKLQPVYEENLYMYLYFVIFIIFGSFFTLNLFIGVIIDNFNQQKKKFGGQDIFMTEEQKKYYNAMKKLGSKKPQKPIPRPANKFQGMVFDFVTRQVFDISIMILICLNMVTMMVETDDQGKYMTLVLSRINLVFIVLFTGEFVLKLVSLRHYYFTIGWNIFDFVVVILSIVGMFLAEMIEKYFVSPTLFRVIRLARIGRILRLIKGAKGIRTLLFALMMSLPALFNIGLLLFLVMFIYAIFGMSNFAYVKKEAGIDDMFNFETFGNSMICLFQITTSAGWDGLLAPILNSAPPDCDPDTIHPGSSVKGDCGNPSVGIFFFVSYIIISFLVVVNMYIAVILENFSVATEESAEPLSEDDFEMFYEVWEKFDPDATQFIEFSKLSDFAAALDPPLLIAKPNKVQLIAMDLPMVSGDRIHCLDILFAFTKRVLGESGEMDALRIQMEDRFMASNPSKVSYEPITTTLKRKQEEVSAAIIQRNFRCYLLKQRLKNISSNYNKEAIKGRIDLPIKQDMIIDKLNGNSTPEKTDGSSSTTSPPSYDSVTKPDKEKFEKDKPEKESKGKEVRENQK
T1 sequence (Q07699 19-218 partner): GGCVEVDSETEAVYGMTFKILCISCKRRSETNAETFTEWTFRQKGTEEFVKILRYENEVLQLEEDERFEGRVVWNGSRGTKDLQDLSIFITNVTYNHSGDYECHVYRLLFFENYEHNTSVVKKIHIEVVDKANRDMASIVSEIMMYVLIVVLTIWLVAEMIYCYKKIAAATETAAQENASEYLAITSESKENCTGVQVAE
T1 sequence (O60939 30-215 partner): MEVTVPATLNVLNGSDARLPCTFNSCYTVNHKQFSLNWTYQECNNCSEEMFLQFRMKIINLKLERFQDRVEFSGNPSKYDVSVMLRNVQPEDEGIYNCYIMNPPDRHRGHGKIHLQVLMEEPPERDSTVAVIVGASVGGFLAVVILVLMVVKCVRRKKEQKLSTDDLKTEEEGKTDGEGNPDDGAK
Procedure: HEK-293 cells stably expressing wild-type (WT) hNav1.3 (SCN3A NCBI # NP 001075, SCN1B NCBI # NM 001037.4, SCN2B NCBI # NM 004588.2) were used to record INa. Cells are maintained with standard tissue culture procedures and stable channel expression is maintained with 800 ug/mL G418 and 3 ug/mL Puromycin in the culture medium. Unless otherwise noted, all reagents are purchased from Sigma-Aldrich (St Louis, Mo., U.S.A.).
Assays measuring Voltage-Dependent Block (VDB) of Nav1.3 are performed on an automated electrophysiology platform, QPatch 16X or QPatch HT (Sophion Bioscience, Copenhagen, Denmark), using the whole cell patch clamp technique to measure currents through the cell membrane. Series resistance compensation is set to 100% and series resistance and whole-cell compensation are performed automatically. Currents stored in the Sophion Bioscience Oracle database (Sophion Bioscience, Copenhagen, Denmark). Analysis is performed using QPatch Assay software and data are compiled in Excel 2010 (Microsoft, Seattle, Wash., U.S.A.).
The internal (pipette) solution consists of (in mM) 105 CsF, 10 NaF, 20 CsCl, 2 EGTA, 10 HEPES, 10 Dextrose with a pH of 7.35 and osmolarity of 300 mOsmol/kg. The external (bath) solution contains in (mM): 80 NaCl, 60 Choline-Cl, 4 KCl, 1.8 CaCl2, 1 MgCl2, 10 dextrose, 10 HEPES, with a pH of 7.35 and osmolarity of 310 mOsmol/kg. Experiments are carried out at 23-25° C.
Compound stocks are routinely made by the Gilead Sample Bank in vials to 10 mM in dimethyl sulfoxide (DMSO). In some cases, when compounds are not soluble in DMSO, they are made in 100% ethanol. Stocks are sonicated as necessary. Compounds are diluted in extracellular solution using a MicroLab Nimbus (Hamilton Robotics, Reno, Nev.) to 1 μM in glass vials and transferred to glass well plates before robotic addition to the cells.
Cells are allowed to stabilize for 10 min after establishment of the whole-cell configuration before current is measured. The test compound is applied 3 times at 120 second intervals to allow for equilibration. Currents were leak subtracted using a P/4 procedure, low-pass Bessel filtered at 5 kHz and digitized at 25 kHz. Results are presented as mean percentage inhibition.
Voltage-dependent block of Nav1.3 peak current was measured during a voltage step to 0 mV (20 ms) following a voltage step pre-conditioning steps (−55 mV for 10 sec followed by −120 mV for 10 ms). The holding potential was −120 mV and this voltage protocol induces half maximal inactivation of Nav1.3. The voltage protocol for VDB was performed every 45 seconds in the absence and presence of compound and percentage inhibition was calculated with respect to the compound free condition.

Compound	Rabbit ST Segment (Percent reduction) [1] [Percent reduction]	Plasma concentration [2] [nM]	inhibition at 1 µM (hNav1.3 (SCN3A)) [%]
FC(F)(F)Oc1ccc(-c2ccc3onc(OCc4ncccn4)c3c2)cc1 [Example 1, 3-(pyrimidin-2-ylmethoxy)-5-(4-(trifluoromethoxy)phenyl)benzo[d]isoxazole]	32	1000	–
COc1cc(OC(F)(F)F)ccc1-c1ccc2onc(OCc3ncccn3)c2c1 [Example 4, 5-(2-methoxy-4-(trifluoromethoxy)phenyl)-3-(pyrimidin-2-ylmethoxy)benzo[d]isoxazole]	–	–	12.2
Cc1ccnc(COc2noc3ccc(-c4ccc(OC(F)(F)F)cc4)cc23)n1 [Example 5, 3-((4-methylpyrimidin-2-yl)methoxy)-5-(4-(trifluoromethoxy)phenyl)benzo[d]isoxazole]	0	1400	13.9
Fc1cc(C(F)(F)F)ccc1-c1ccc2onc(OCc3ncccn3)c2c1 [Example 6, 5-(2-fluoro-4-(trifluoromethyl)phenyl)-3-(pyrimidin-2-ylmethoxy)benzo[d]isoxazole]	0	800	< 5
Cc1cc(-c2ccc3onc(OCc4ncccn4)c3c2)ccc1OC(F)(F)F [Example 7, 5-(3-methyl-4-(trifluoromethoxy)phenyl)-3-(pyrimidin-2-ylmethoxy)benzo[d]isoxazole]	–	–	< 5
Fc1cc(-c2ccc3onc(OCc4ncccn4)c3c2)ccc1Cl [Example 8, 5-(4-chloro-3-fluorophenyl)-3-(pyrimidin-2-ylmethoxy)benzo[d]isoxazole]	–	–	6.4
FC(F)(F)Oc1cccc(-c2ccc3onc(OCc4ncccn4)c3c2)c1 [Example 10, 3-(pyrimidin-2-ylmethoxy)-5-(3-(trifluoromethoxy)phenyl)benzo[d]isoxazole]	–	–	8.5
COc1cc(-c2ccc(OC(F)(F)F)cc2)cc2c(OCc3ncccn3)noc12 [Example 22, 7-methoxy-3-(pyrimidin-2-ylmethoxy)-5-(4-(trifluoromethoxy)phenyl)benzo[d]isoxazole]	–	–	17.3
FC(F)(F)Oc1ccc(-c2ccc3onc(OCCn4cncn4)c3c2)cc1 [Example 58, 3-(2-(1H-1,2,4-triazol-1-yl)ethoxy)-5-(4-(trifluoromethoxy)phenyl)benzo[d]isoxazole]	14	1300	–
O=C1CCCN1CCOc1noc2ccc(-c3ccc(OC(F)(F)F)cc3)cc12 [Example 59, 1-(2-((5-(4-(trifluoromethoxy)phenyl)benzo[d]isoxazol-3-yl)oxy)ethyl)pyrrolidin-2-one]	23	1300	14.5
CC(COc1noc2ccc(-c3ccc(OC(F)(F)F)cc3)cc12)n1cccn1 (stereo not shown) [Example 68, 3-(2-(1H-pyrazol-1-yl)propoxy)-5-(4-(trifluoromethoxy)phenyl)benzo[d]isoxazole]	–	–	27.1
FC(F)(F)Oc1ccc(-c2ccc3onc(OCc4nnc(C5CC5)o4)c3c2)cc1 [Example 96, 3-((5-cyclopropyl-1,3,4-oxadiazol-2-yl)methoxy)-5-(4-(trifluoromethoxy)phenyl)benzo[d]isoxazole]	46	1000	–
Cc1nnc(COc2noc3ccc(-c4ccc(OC(F)(F)F)cc4)cc23)o1 [Example 99, 3-((5-methyl-1,3,4-oxadiazol-2-yl)methoxy)-5-(4-(trifluoromethoxy)phenyl)benzo[d]isoxazole]	–	–	41.4
